Reference: patent publication US8273337B2, “Hair binding peptides and peptide-based hair reagents for personal care” (Affinergy Inc., priority 2007, dated 2012)

Tests used:
90% gray hair [1] = test: ELISA hair-binding activity of biotinylated peptides on hair bundles; parameters: species or system human; details: 20 μM biotinylated peptide in TBST and 1 mg/mL BSA, 1 hour at room temperature, 90% gray hair bundles, streptavidin-HRP detection; mean of at least three replicates
Excerpt: Enzyme-linked immunosorbent assay (ELISA) was used to evaluate the hair-binding affinity of the biopanning selected peptide candidates (Example 1; biotinylated peptides SEQ ID NOs: 25, 27, 29, 30, and 32). The identified peptides along with a positive control peptide Gray3 (given as SEQ ID NO: 34; previously reported in co-pending U.S. patent application Ser. No. 11/251,715 corresponding to U.S. Patent Application Publication No. 2006/0073111) were synthesized using standard solid […] synthesis method (U.S. Ser. No. 11/251/715).
The resulting absorbance values, reported as the mean of at least three replicates, and the standard error of the mean (SEM) are given in Table 3.

90% gray hair [2] = details: substrate 90% gray hair; peptide concentration giving 50% of the maximum ELISA signal; calculated from Scatchard plots
Experimental: (§1) The MB50 provides an indication of the strength of the binding interaction or affinity of the components of the complex.
as §1
The hair samples were assembled in bundles consisting of 100 hairs about 1 cm long which were bundled together using narrow tape at one end. […] Peptide binding buffer consisting of various concentrations of biotinylated peptide in TBST and 1 mg/mL BSA was added to the hair bundles and incubated for 1 hour at room temperature, followed by 6 TBST washes. […] The results were plotted as A450 versus the concentration of peptide using GraphPad Prism 4.0 (GraphPad Software, Inc., San Diego, Calif.).

Substance	Hair A405 nm (90% gray hair [1])	MB50 (90% gray hair [2]) [nM]
EGASVASASDSVDSSYYSR-GSSGK (biotin) [Aff15017]	0.184	–
Gray3: positive control hair-binding peptide previously reported in U.S. Patent Application Publication No. 2006/0073111 (HDHKNQKETHQRHAA; Hair-binding peptide) [reference compound]	0.448	–
SRKSSQKNPHHPKPPKKPTAR-GSSGK (biotin) [Aff15014]	0.871	33
SSEGASVASASDSVDSSYYSRKSSQKNPHHPKPPKKPTAR-GSSGK (biotin) [Aff15023]	0.66	–
SSNDSNVSWFHYYASGLTSSR-GSSG-SRKSSQKNPHHPKPPKKPTAR-GSSGK (biotin) [Aff15025]	0.86	–
VRPNLHRKAKAKPDHKQSENRKVPFYSH-GSSGK (biotin) [Aff15012]	0.873	24
